# In patent publication US20160158375A1, “DIPEPTIDE LINKED MEDICINAL AGENTS” (Indiana University Research and Technology Corporation, priority 2010, published 2016):
# Where two headings read alike, the source gives them in different places. Square brackets hold non-standard residues; d marks the D form. Peptide text beside a SMILES is read from it. Sar = CNCC(=O)O
# Key:
# [1] = Rate of model dipeptide cleavage in PBS (HPLC / LC-MS); conditions: for Relative peak area (%), HPLC peak a / Relative peak area (%), HPLC peak b: PBS, 37° C.; for Relative peak area (%), HPLC peak a: peak a molecular weight 702; for Relative peak area (%), HPLC peak b: peak b molecular weight 902
# Protocol: The solution was incubated at 37° C. […] The dipeptide cleavage was quenched by lowering the pH with an equal volume of 0.1% TFA. The rate of cleavage was qualitatively monitored by LC-MS and quantitatively studied by HPLC. The retention time and relative peak area for the prodrug and the parent model peptide were quantified using Peak Simple Chromatography software.
# The flow rate was 1 ml/min.
# The concentrations of the prodrugs and the model parent peptide were determined by their respective peak areas, ‘a’ and ‘b’ for each of the different collection times (Table 1). […] The slope of this plot provides the rate constant 1′.
# [2] = plasma; for Relative peak area (%), HPLC peak a: peak a molecular weight 702; for Relative peak area (%), HPLC peak b: peak b molecular weight 902
compound,measurement,setting,value
C[C@@H](O)[C@H](NC(=O)CNC(=O)[C@H](CCCNC(=N)N)NC(=O)[C@H](CO)NC(=O)[C@H](Cc1c[nH]cn1)NC(=O)CN(C)C(=O)C(C)(C)N)C(=O)N[C@@H](Cc1ccccc1)C(N)=O [Compound 24],half-life at 1 mg/ml,[1]; buffer,9 min
"C[C@@H](O)[C@H](NC(=O)CNC(=O)[C@H](CCCNC(=N)N)NC(=O)[C@H](CO)NC(=O)[C@H](Cc1c[nH]cn1)NC(=O)CN(C)C(=O)[C@@H](N)CCCCN)C(=O)N[C@@H](Cc1ccccc1)C(N)=O [peptide A, Lys-Sar-HSRGTF-NH2] (H-K[Sar]HSRGTF-NH2; N-terminus assumed)","Relative peak area (%), HPLC peak a",[1]; 5 h,26.5%
same,"Relative peak area (%), HPLC peak b",[1]; 5 h,73.5%
same,"Relative peak area (%), HPLC peak a",[1]; 8 h,28.9%
same,"Relative peak area (%), HPLC peak b",[1]; 8 h,71.1%
same,"Relative peak area (%), HPLC peak a",[1]; 24 h,28.8%
same,"Relative peak area (%), HPLC peak b",[1]; 24 h,71.2%
same,"Relative peak area (%), HPLC peak a",[1]; 31 h,77.7%
same,"Relative peak area (%), HPLC peak b",[1]; 31 h,22.3%
same,"Relative peak area (%), HPLC peak a",[1]; 47 h,90.0%
same,"Relative peak area (%), HPLC peak b",[1]; 47 h,10.0%
"C[C@H](O)[C@@H](NC(=O)CNC(=O)[C@@H](CCCNC(=N)N)NC(=O)[C@H](NC(=O)[C@@H](Cc1c[nH]cn1)NC(=O)CN(C)C(=O)[C@@H](N)CCCCN)[C@H](C)O)C(=O)N[C@H](Cc1ccccc1)C(N)=O [peptide B, Lys-Sar-dHdTdRGdTdF-NH2] (H-K[Sar][dH][dT][dR]G[dT][dF]-NH2)","Relative peak area (%), HPLC peak a",[2]; 5 h,17.0%
same,"Relative peak area (%), HPLC peak b",[2]; 5 h,83.0%
same,"Relative peak area (%), HPLC peak a",[2]; 11 h,29.2%
same,"Relative peak area (%), HPLC peak b",[2]; 11 h,70.8%
same,"Relative peak area (%), HPLC peak a",[2]; 24 h,60.2%
same,"Relative peak area (%), HPLC peak b",[2]; 24 h,39.8%
same,"Relative peak area (%), HPLC peak a",[2]; 32 h,54.0%
same,"Relative peak area (%), HPLC peak b",[2]; 32 h,46.0%
same,"Relative peak area (%), HPLC peak a",[2]; 48 h,27.6%
same,"Relative peak area (%), HPLC peak b",[2]; 48 h,72.4%
